Results published in patent US12295936B2, “Immunomodulating urea azalides” (Zoetis Services LLC, priority 2020, dated 2025).

The compounds below were run on BRD pathogens, M. haemolytica and P. multocida (assay: MIC screening panel of BRD pathogens (antibacterial / non-antibacterial)). Settings: Table H, Formula (1-A1) compounds.

SMILES | MIC ≤64 μg/mL for at least one BRD bacterial strain (flag * at Ex #)
CCCNC[C@]1(O)[C@H](C)O[C@@H](O[C@H]2[C@H](C)[C@@H](O[C@@H]3O[C@H](C)C[C@H](N(C)C(=O)NCCN4CCCCC4)[C@H]3O)[C@](C)(O)C[C@@H](C)CN[C@H](C)[C@@H](O)[C@](C)(O)[C@@H](CC)OC(=O)[C@@H]2C)C[C@@]1(C)OC [Example H-98, 1-((2S,3R,4S,6R)-2-(((2R,3S,4R,5R,8R,10R,11R,12S,13S,14R)-2-ethyl-3,4,10-trihydroxy-13-(((2R,4R,5S,6S)-5-hydroxy-4-methoxy-4,6-dimethyl-5-((propylamino)methyl)tetrahydro-2H-pyran-2-yl)oxy)-3,5,8,10,12,14-hexamethyl-15-oxo-1-oxa-6-azacyclopentadecan-11-yl)oxy)-3-hydroxy-6-methyltetrahydro-2H-pyran-4-yl)-1-methyl-3-(2-(piperidin-1-yl)ethyl)urea] | H-98* (*MIC ≤64 μg/mL for at least one BRD bacterial strain)

Same assay, conditions: read-out: MIC ≤64 μg/mL for at least one of the bacterial strains (flag * at Ex #)

SMILES | MIC
CC[C@H]1OC(=O)[C@H](C)[C@@H](O[C@H]2C[C@@](C)(OC)[C@](O)(CN3CCSCC3)[C@H](C)O2)[C@H](C)[C@@H](O[C@@H]2O[C@H](C)C[C@H](N(C)C(=O)N(C)c3ccccc3)[C@H]2O)[C@](C)(O)C[C@@H](C)CN[C@H](C)[C@@H](O)[C@]1(C)O [Example J-11, 1-((2S,3R,4S,6R)-2-(((2R,3S,4R,5R,8R,10R,11R,12S,13S,14R)-2-ethyl-3,4,10-trihydroxy-13-(((2R,4R,5S,6S)-5-hydroxy-4-methoxy-4,6-dimethyl-5-(thiomorpholinomethyl)tetrahydro-2H-pyran-2-yl)oxy)-3,5,8,10,12,14-hexamethyl-15-oxo-1-oxa-6-azacyclopentadecan-11-yl)oxy)-3-hydroxy-6-methyltetrahydro-2H-pyran-4-yl)-1,3-dimethyl-3-phenylurea] | < 64 µg/mL

Same assay, conditions: read-out: antibacterial / non-antibacterial (MIC for the BRD pathogens)

SMILES | MIC
CCCNC[C@]1(O)[C@H](C)O[C@@H](O[C@H]2[C@H](C)[C@@H](O[C@@H]3O[C@H](C)C[C@H](N(C)C(=O)Nc4ccc(Cl)cc4)[C@H]3O)[C@](C)(O)C[C@@H](C)CN[C@H](C)[C@@H](O)[C@](C)(O)[C@@H](CC)OC(=O)[C@@H]2C)C[C@@]1(C)OC [Example H-84, 3-(4-chlorophenyl)-1-((2S,3R,4S,6R)-2-(((2R,3S,4R,5R,8R,10R,11R,12S,13S,14R)-2-ethyl-3,4,10-trihydroxy-13-(((2R,4R,5S,6S)-5-hydroxy-4-methoxy-4,6-dimethyl-5-((propylamino)methyl)tetrahydro-2H-pyran-2-yl)oxy)-3,5,8,10,12,14-hexamethyl-15-oxo-1-oxa-6-azacyclopentadecan-11-yl)oxy)-3-hydroxy-6-methyltetrahydro-2H-pyran-4-yl)-1-methylurea] | > 64 µg/mL
CC[C@H]1OC(=O)[C@H](C)[C@@H](O[C@H]2C[C@@](C)(OC)[C@](O)(CN=[N+]=[N-])[C@H](C)O2)[C@H](C)[C@@H](O[C@@H]2O[C@H](C)C[C@H](N(C)C(=O)Nc3ccccc3)[C@H]2O)[C@](C)(O)C[C@@H](C)CN[C@H](C)[C@@H](O)[C@]1(C)O [Example F-1, 1-((2S,3R,4S,6R)-2-(((2R,3S,4R,5R,8R,10R,11R,12S,13S,14R)-13-(((2R,4R,5S,6S)-5-(azidomethyl)-5-hydroxy-4-methoxy-4,6-dimethyltetrahydro-2H-pyran-2-yl)oxy)-2-ethyl-3,4,10-trihydroxy-3,5,8,10,12,14-hexamethyl-15-oxo-1-oxa-6-azacyclopentadecan-11-yl)oxy)-3-hydroxy-6-methyltetrahydro-2H-pyran-4-yl)-1-methyl-3-phenylurea] | > 64 µg/mL
CCCNC[C@]1(O)[C@H](C)O[C@@H](O[C@H]2[C@H](C)[C@@H](O[C@@H]3O[C@H](C)C[C@H](N(C)C(=O)N(C)c4cccnn4)[C@H]3O)[C@](C)(O)C[C@@H](C)CN[C@H](C)[C@@H](O)[C@](C)(O)[C@@H](CC)OC(=O)[C@@H]2C)C[C@@]1(C)OC [Example H-48, 1-((2S,3R,4S,6R)-2-(((2R,3S,4R,5R,8R,10R,11R,12S,13S,14R)-2-ethyl-3,4,10-trihydroxy-13-(((2R,4R,5S,6S)-5-hydroxy-4-methoxy-4,6-dimethyl-5-((propylamino)methyl)tetrahydro-2H-pyran-2-yl)oxy)-3,5,8,10,12,14-hexamethyl-15-oxo-1-oxa-6-azacyclopentadecan-11-yl)oxy)-3-hydroxy-6-methyltetrahydro-2H-pyran-4-yl)-1,3-dimethyl-3-(pyridazin-3-yl)urea] | > 64 µg/mL
CCCNC[C@]1(O)[C@H](C)O[C@@H](O[C@H]2[C@H](C)[C@@H](O[C@@H]3O[C@H](C)C[C@H](N(C)C(=O)N(C)c4ncccn4)[C@H]3O)[C@](C)(O)C[C@@H](C)CN[C@H](C)[C@@H](O)[C@](C)(O)[C@@H](CC)OC(=O)[C@@H]2C)C[C@@]1(C)OC [Example H-49, 1-((2S,3R,4S,6R)-2-(((2R,3S,4R,5R,8R,10R,11R,12S,13S,14R)-2-ethyl-3,4,10-trihydroxy-13-(((2R,4R,5S,6S)-5-hydroxy-4-methoxy-4,6-dimethyl-5-((propylamino)methyl)tetrahydro-2H-pyran-2-yl)oxy)-3,5,8,10,12,14-hexamethyl-15-oxo-1-oxa-6-azacyclopentadecan-11-yl)oxy)-3-hydroxy-6-methyltetrahydro-2H-pyran-4-yl)-1,3-dimethyl-3-(pyrimidin-2-yl)urea] | > 64 µg/mL
CC[C@H]1OC(=O)[C@H](C)[C@@H](O[C@H]2C[C@@](C)(OC)[C@](O)(CNCC3CC3)[C@H](C)O2)[C@H](C)[C@@H](O[C@@H]2O[C@H](C)C[C@H](N(C)C(=O)N(C)c3ccccc3)[C@H]2O)[C@](C)(O)C[C@@H](C)CN[C@H](C)[C@@H](O)[C@]1(C)O [Example H-41, 1-((2S,3R,4S,6R)-2-(((2R,3S,4R,5R,8R,10R,11R,12S,13S,14R)-13-(((2R,4R,5S,6S)-5-(((cyclopropylmethyl)amino)methyl)-5-hydroxy-4-methoxy-4,6-dimethyltetrahydro-2H-pyran-2-yl)oxy)-2-ethyl-3,4,10-trihydroxy-3,5,8,10,12,14-hexamethyl-15-oxo-1-oxa-6-azacyclopentadecan-11-yl)oxy)-3-hydroxy-6-methyltetrahydro-2H-pyran-4-yl)-1,3-dimethyl-3-phenylurea] | > 64 µg/mL
CC[C@H]1OC(=O)[C@H](C)[C@@H](O)[C@H](C)[C@@H](O[C@@H]2O[C@H](C)C[C@H](N(C)C(=O)Nc3cc(C)n(C)n3)[C@H]2O)[C@](C)(O)C[C@@H](C)CN[C@H](C)[C@@H](O)[C@]1(C)O [Example A-7, 3-(1,5-dimethyl-1H-pyrazol-3-yl)-1-((2S,3R,4S,6R)-2-(((2R,3S,4R,5R,8R,10R,11R,12S,13S,14R)-2-ethyl-3,4,10,13-tetrahydroxy-3,5,8,10,12,14-hexamethyl-15-oxo-1-oxa-6-azacyclopentadecan-11-yl)oxy)-3-hydroxy-6-methyltetrahydro-2H-pyran-4-yl)-1-methylurea] | > 64 µg/mL
CC[C@H]1OC(=O)[C@H](C)[C@@H](O)[C@H](C)[C@@H](O[C@@H]2O[C@H](C)C[C@H](N(C)C(=O)Nc3cnn(C)c3)[C@H]2O)[C@](C)(O)C[C@@H](C)CN[C@H](C)[C@@H](O)[C@]1(C)O [Example A-6, 1-((2S,3R,4S,6R)-2-(((2R,3S,4R,5R,8R,10R,11R,12S,13S,14R)-2-ethyl-3,4,10,13-tetrahydroxy-3,5,8,10,12,14-hexamethyl-15-oxo-1-oxa-6-azacyclopentadecan-11-yl)oxy)-3-hydroxy-6-methyltetrahydro-2H-pyran-4-yl)-1-methyl-3-(1-methyl-1H-pyrazol-4-yl)urea] | > 64 µg/mL
